From ChEMBL document CHEMBL5550211 (J Med Chem, 2024)

Key:
[1] = Apparent permeability across apical to basolateral side in LLC-PK1 cells; assay type: ADME, cell-based, Sus scrofa; conditions: pig
[2] = Substrate activity at BCRP in LLC-PK1 cells assessed as efflux ratio of apparent permeability from basolateral to apical side over apical to basolateral side; assay type: ADME, cell-based, Sus scrofa; conditions: pig
[3] = target: T1, Serine/threonine-protein kinase B-raf (Homo sapiens, UniProt P15056, V600E); experiment: Inhibition of 6-His tagged BRAF V600E mutant (445 to 723 residues) (unknown origin)
[4] = Substrate activity at P-gp in LLC-PK1 cells assessed as efflux ratio of apparent permeability from basolateral to apical side over apical to basolateral side; assay type: ADME, cell-based, Sus scrofa; conditions: pig
[5] = target: T1, Serine/threonine-protein kinase B-raf; experiment: Inhibition of BRAF V600E mutant in human A-375 cells assessed as reduction in ERK phosphorylation; assay type: cell-based

T1 sequence (P15056 2-766 V600E limits assumed): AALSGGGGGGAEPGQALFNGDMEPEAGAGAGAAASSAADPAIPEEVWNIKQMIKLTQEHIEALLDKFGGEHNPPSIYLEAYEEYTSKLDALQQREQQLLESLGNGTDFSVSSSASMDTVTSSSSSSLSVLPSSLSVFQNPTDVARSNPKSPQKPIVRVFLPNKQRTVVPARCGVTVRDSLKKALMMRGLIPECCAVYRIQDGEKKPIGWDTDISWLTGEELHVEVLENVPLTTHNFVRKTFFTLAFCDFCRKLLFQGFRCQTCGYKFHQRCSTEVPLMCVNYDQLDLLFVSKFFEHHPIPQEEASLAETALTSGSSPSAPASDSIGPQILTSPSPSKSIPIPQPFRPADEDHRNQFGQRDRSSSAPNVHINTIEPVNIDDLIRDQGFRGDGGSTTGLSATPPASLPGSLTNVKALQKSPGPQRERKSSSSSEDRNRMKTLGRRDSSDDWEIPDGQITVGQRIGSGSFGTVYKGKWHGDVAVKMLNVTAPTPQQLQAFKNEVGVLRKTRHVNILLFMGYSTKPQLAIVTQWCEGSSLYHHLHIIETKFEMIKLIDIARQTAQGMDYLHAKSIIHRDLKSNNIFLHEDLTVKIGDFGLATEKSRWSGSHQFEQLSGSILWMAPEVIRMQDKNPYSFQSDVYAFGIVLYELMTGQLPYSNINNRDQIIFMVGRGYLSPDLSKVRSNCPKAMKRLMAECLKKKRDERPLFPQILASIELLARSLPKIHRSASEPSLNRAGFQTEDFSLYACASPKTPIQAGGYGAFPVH

Papp A→B [1] [×10⁻⁶ cm/s] | Ratio [2] | IC50 [3] [nM] | Ratio [4] | IC50 [5] [nM] | Compound
25 | 1.6 | 11.7 | 1.6 | 61.5 | CCCS(=O)(=O)Nc1ccc(F)c(Nc2ccc3ncn(C4CC4)c(=O)c3c2C)c1Cl
29 |  |  |  |  | CCCS(=O)(=O)Nc1ccc(F)c(Oc2ccc3ncn(C)c(=O)c3c2)c1F
26 | 21.3 | 88 | 11.1 | 69.1 | CCCS(=O)(=O)Nc1ccc(F)c(Nc2ccc3ncn(C)c(=O)c3c2)c1F
21 | 1.6 | 17.5 | 1.1 | 285 | CCCS(=O)(=O)Nc1ccc(F)c(Nc2ccc3ncn(CC4CC4)c(=O)c3c2C)c1Cl
20 | 1.5 | 20 | 1.4 | 187 | CCCS(=O)(=O)Nc1ccc(F)c(Nc2ccc3ncn(C(C)C)c(=O)c3c2C)c1Cl
29 | 1.1 | 46.1 | 1.5 | 93.6 | Cc1c(Nc2c(F)ccc(NS(=O)(=O)CC3CC3)c2Cl)ccc2ncn(C)c(=O)c12
37 | 3.9 | 28.4 | 4.1 | 178 | CCCS(=O)(=O)Nc1ccc(Cl)c(N(C)c2ccc3ncn(C)c(=O)c3c2)c1F
3 | 15.2 |  | 21.7 |  | CCCS(=O)(=O)Nc1ccc(F)c(C(=O)c2c[nH]c3ncc(-c4ccc(Cl)cc4)cc23)c1F [VEMURAFENIB]
48 | 18.9 | 60.3 | 7.1 | 142 | CCCS(=O)(=O)Nc1ccc(Cl)c(Nc2ccc3ncn(C)c(=O)c3c2)c1F
19 | 1.5 | 197 | 1.5 | 197 | CCCS(=O)(=O)Nc1ccc(F)c(N(CC)c2ccc3ncn(C)c(=O)c3c2)c1F
11 |  |  | 26.3 |  | COC(=O)N[C@@H](C)CNc1nccc(-c2cn(C(C)C)nc2-c2cc(Cl)cc(NS(C)(=O)=O)c2F)n1 [ENCORAFENIB]
19 |  |  |  |  | CCCS(=O)(=O)Nc1ccc(F)c(Sc2ccc3ncn(C)c(=O)c3c2)c1F
24 |  |  |  |  | CCCS(=O)(=O)Nc1ccc(F)c(Nc2ccc3ncn(C)c(=O)c3c2Cl)c1Cl
27 | 0.8 | 77.4 | 1.2 | 113 | CCC(C)S(=O)(=O)Nc1ccc(F)c(Nc2ccc3ncn(C)c(=O)c3c2C)c1Cl (centres undefined)
36 | 1.3 | 182 | 1.8 | 169 | CCS(=O)(=O)Nc1ccc(F)c(Nc2ccc3ncn(C)c(=O)c3c2C)c1Cl
27 | 1.3 | 50.8 | 1.6 | 122 | Cc1c(Nc2c(F)ccc(NS(=O)(=O)CC(C)C)c2Cl)ccc2ncn(C)c(=O)c12
33 |  |  |  |  | CCCS(=O)(=O)Nc1ccc(F)c(Nc2ccc3ncn(C)c(=O)c3c2F)c1Cl
22 |  |  |  |  | CCCS(=O)(=O)Nc1ccc(F)c(Nc2ccc3ncn(C)c(=O)c3c2OC)c1Cl
29 | 11.7 |  | 10.1 |  | CC(C)(C)c1nc(-c2cccc(NS(=O)(=O)c3c(F)cccc3F)c2F)c(-c2ccnc(N)n2)s1 [DABRAFENIB]
28 | 1.3 | 54.9 | 3.6 | 177 | CCCS(=O)(=O)Nc1ccc(F)c(N(C)c2ccc3ncn(C)c(=O)c3c2)c1Cl
41 | 2.6 | 69.2 | 3.2 | 73.7 | CCCS(=O)(=O)Nc1ccc(F)c(N(C)c2ccc3ncn(C)c(=O)c3c2)c1F
22 |  |  |  |  | Cc1c(Nc2c(F)ccc(NS(=O)(=O)C3CC3)c2Cl)ccc2ncn(C)c(=O)c12
